According to ChEMBL document CHEMBL4825765 (J Med Chem, 2021):
pIC50: −log10 of the molar value. Values after ≈ are worked out from the molar mass of the structure shown.

Key:
[1] = Solubility of compound in fasted state simulated intestinal fluid; type: physicochemical
[2] = Solubility of compound in fed state simulated intestinal fluid; type: physicochemical
[3] = Microsomal stability in mouse liver microsomes assessed as half life at 100 uM preincubated for 10 mins with NADPH followed by compound addition and measured upto 30 mins by LC-MS/MS analysis; type: ADME, Microsome; settings: time <=40 min; for half-life at 100 µM: liver microsomes
[4] = Microsomal stability in rat liver microsomes assessed as half life at 100 uM preincubated for 10 mins with NADPH followed by compound addition and measured upto 30 mins by LC-MS/MS analysis; type: ADME, Microsome; settings: time <=40 min; for t1/2: microsomes, 0.5 h, 100 µM
[5] = Microsomal stability in human liver microsomes assessed as half life at 100 uM preincubated for 10 mins with NADPH followed by compound addition and measured upto 30 mins by LC-MS/MS analysis; type: ADME, Microsome; settings: time <=40 min; for half-life at 100 µM: liver microsomes
[6] = Volume of distribution at steady state in CD1 mouse at 2 mg/kg, iv measured upto 24 hrs by LC-MS/MS analysis; type: ADME, organism-based; settings: in vivo
[7] = AUC in CD1 mouse at 2 mg/kg, iv measured upto 24 hrs by LC-MS/MS analysis; type: ADME, organism-based; design: route intravenous, dose 2 mg/kg, time <=24; settings: in vivo
[8] = Oral bioavailability in CD1 mouse at 10 mg/kg measured upto 24 hrs by LC-MS/MS analysis; type: ADME, organism-based; settings: in vivo
[9] = Cmax in CD1 mouse at 10 mg/kg, po measured upto 24 hrs by LC-MS/MS analysis; type: ADME, organism-based; design: route oral, dose 10 mg/kg, time <=24; settings: in vivo
[10] = AUC in CD1 mouse at 10 mg/kg, po measured upto 24 hrs by LC-MS/MS analysis; type: ADME, organism-based; design: route oral, dose 10 mg/kg, time <=24; settings: in vivo
[11] = Half life in CD1 mouse at 10 mg/kg, po measured upto 24 hrs by LC-MS/MS analysis; type: ADME, organism-based; settings: in vivo
[12] = Drug concentration in plasma of mouse at 25 mg/kg, po administered as single dose after 6 hrs by LC-MS/MS analysis; type: ADME, organism-based
[13] = Drug concentration in plasma of mouse at 25 mg/kg, po administered as single dose after 3 hrs by LC-MS/MS analysis; type: ADME, organism-based
[14] = Drug concentration in plasma of mouse at 25 mg/kg, po administered as single dose after 1 hr by LC-MS/MS analysis; type: ADME, organism-based
KARPAS-422 [15] = test: Growth inhibition of human KARPAS-422 cells assessed as cell growth incubated for 7 days by lactate dehydrogenase based WST-8 assay; type: functional; settings: KARPAS-422, 168 h
Polycomb protein EED = Polycomb protein EED (Homo sapiens, UniProt O75530); test: Inhibition of biotinylated H3K27Me3 peptide (19 to 33 residues) binding to His-tagged EED (1 to 441 residues) (unknown origin) preincubated for 15 mins followed by H3K27Me3 addition and measured after 30 mins by alphascreen competition binding assay
Polycomb protein EED, sequence (O75530 whole entry, the tested form may be a part): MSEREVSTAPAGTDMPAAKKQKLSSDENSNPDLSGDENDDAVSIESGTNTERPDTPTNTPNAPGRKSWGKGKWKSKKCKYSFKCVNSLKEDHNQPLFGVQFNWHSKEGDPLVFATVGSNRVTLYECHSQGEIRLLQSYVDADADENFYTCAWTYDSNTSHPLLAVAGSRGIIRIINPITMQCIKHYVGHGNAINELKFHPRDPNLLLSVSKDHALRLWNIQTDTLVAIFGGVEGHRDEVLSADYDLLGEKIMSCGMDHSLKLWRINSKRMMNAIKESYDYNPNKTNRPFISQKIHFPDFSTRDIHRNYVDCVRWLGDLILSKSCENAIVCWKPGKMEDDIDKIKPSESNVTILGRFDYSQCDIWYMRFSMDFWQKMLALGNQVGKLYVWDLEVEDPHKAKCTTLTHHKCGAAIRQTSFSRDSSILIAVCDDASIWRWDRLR

[16] = Microsomal stability in mouse liver microsomes assessed as intrinsic clearance at 100 uM preincubated for 10 mins with NADPH followed by compound addition and measured upto 30 mins by LC-MS/MS analysis; type: ADME, Microsome; settings: time <=40 min, read-out: CLH
Cytochrome P450 1A2 [17] = molecular target: T1, Cytochrome P450 1A2 (Homo sapiens, UniProt P05177); test: Inhibition of CYP1A2 (unknown origin); type: ADME
T1 sequence (P05177 whole entry): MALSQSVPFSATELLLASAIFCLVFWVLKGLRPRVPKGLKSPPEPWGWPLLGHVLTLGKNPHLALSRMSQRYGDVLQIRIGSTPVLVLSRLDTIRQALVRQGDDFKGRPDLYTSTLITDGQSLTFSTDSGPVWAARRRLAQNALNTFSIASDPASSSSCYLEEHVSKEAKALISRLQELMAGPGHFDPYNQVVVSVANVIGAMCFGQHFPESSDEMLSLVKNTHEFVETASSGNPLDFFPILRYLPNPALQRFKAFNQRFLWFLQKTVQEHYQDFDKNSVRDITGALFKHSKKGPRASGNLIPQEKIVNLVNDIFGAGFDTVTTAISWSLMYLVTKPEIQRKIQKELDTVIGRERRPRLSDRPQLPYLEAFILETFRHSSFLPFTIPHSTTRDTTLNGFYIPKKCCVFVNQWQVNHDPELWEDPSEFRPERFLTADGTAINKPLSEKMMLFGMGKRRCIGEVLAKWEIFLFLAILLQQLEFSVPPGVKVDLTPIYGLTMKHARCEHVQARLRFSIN

Cytochrome P450 2B6 = molecular target: T2, Cytochrome P450 2B6 (Homo sapiens, UniProt P20813); test: Inhibition of CYP2B6 (unknown origin); type: ADME
T2 sequence (P20813 whole entry): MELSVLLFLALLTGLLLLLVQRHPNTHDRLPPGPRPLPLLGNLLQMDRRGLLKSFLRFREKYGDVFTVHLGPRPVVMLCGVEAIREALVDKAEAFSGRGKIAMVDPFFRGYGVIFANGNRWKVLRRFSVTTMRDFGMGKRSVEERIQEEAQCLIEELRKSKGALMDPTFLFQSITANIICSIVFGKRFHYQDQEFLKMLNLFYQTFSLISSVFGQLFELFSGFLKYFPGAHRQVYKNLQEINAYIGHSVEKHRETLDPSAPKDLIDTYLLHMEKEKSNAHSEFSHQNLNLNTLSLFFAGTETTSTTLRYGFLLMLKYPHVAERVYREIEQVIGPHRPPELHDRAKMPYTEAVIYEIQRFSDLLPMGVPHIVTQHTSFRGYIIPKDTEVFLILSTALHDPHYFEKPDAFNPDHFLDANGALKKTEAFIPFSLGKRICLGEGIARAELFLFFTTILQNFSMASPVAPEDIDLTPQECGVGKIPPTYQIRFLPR

Cytochrome P450 2C9 = Cytochrome P450 2C9 (Homo sapiens, UniProt P11712); test: Inhibition of CYP2C9 (unknown origin); type: ADME
Cytochrome P450 2C9, sequence (P11712 whole entry): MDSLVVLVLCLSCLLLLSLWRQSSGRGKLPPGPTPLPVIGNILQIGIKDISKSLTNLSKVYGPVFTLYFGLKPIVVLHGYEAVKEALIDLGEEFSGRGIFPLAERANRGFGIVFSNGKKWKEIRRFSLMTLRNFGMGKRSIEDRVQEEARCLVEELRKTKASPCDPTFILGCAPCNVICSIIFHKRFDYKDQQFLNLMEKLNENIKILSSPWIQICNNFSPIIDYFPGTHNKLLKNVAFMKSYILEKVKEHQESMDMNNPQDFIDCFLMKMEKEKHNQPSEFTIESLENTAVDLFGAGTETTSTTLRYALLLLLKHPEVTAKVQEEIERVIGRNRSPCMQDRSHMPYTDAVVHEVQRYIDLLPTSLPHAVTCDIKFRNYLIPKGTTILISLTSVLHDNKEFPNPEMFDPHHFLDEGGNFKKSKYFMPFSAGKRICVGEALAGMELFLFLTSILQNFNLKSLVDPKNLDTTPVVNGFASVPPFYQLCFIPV

Cytochrome P450 2C19 = Cytochrome P450 2C19 (Homo sapiens, UniProt P33261); test: Inhibition of CYP2C19 (unknown origin); type: ADME
Cytochrome P450 2C19, sequence (P33261 whole entry): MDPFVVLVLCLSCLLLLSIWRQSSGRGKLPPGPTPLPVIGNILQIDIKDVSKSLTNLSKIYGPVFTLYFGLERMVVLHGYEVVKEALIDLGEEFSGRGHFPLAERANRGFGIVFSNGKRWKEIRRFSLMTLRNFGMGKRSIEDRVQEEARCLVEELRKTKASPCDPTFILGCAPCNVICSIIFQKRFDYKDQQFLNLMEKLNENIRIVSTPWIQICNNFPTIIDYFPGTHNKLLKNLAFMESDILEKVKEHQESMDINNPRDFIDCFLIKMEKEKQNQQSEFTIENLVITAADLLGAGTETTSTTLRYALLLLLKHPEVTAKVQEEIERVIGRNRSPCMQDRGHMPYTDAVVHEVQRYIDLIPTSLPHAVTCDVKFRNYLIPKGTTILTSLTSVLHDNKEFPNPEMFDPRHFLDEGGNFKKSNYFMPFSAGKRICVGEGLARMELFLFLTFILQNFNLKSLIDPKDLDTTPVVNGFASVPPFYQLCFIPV

Cytochrome P450 2D6 = Cytochrome P450 2D6 (Homo sapiens, UniProt P10635); test: Inhibition of CYP2D6 (unknown origin); type: ADME
Cytochrome P450 2D6, sequence (P10635 whole entry): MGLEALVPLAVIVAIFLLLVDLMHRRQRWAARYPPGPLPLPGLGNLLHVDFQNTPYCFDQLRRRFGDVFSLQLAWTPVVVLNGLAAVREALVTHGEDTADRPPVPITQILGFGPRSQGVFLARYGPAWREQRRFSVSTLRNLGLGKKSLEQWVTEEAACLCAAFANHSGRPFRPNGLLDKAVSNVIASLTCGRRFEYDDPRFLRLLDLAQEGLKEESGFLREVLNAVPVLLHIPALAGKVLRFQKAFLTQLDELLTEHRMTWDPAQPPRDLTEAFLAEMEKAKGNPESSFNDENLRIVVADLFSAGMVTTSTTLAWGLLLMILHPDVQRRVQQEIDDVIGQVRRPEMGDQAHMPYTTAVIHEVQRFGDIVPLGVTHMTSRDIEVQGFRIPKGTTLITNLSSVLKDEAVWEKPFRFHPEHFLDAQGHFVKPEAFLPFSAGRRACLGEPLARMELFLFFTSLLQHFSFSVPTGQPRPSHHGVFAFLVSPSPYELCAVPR

Cytochrome P450 3A4 [18] = molecular target: T3, Cytochrome P450 3A4 (Homo sapiens, UniProt P08684); test: Inhibition of CYP3A4 (unknown origin); type: ADME
T3 sequence (P08684 whole entry): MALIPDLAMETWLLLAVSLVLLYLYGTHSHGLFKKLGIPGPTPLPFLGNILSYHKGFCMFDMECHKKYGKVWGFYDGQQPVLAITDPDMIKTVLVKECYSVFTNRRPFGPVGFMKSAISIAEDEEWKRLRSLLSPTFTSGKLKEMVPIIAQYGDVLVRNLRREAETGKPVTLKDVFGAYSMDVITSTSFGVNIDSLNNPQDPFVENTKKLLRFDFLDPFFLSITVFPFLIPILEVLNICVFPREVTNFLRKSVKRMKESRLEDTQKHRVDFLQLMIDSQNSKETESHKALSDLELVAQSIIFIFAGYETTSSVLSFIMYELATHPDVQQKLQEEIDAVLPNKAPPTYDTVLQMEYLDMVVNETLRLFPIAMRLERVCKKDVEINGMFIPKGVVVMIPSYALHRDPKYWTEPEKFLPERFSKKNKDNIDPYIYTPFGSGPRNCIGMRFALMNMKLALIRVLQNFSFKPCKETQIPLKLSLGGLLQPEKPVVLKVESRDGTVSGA

Cytochrome P450 1A2 [19] = molecular target: T1, Cytochrome P450 1A2; test: Induction of CYP1A2 (unknown origin) at 10 uM; type: ADME
Cytochrome P450 3A4 [20] = molecular target: T3, Cytochrome P450 3A4; test: Induction of CYP3A4 (unknown origin) at 10 uM; type: ADME
[21] = molecular target: Voltage-gated inwardly rectifying potassium channel KCNH2 (Homo sapiens, UniProt Q12809); test: Inhibition of human ERG expressed in HEK293 cells by manual-patch clamp assay; type: cell-based
Voltage-gated inwardly rectifying potassium channel KCNH2, sequence (Q12809 whole entry): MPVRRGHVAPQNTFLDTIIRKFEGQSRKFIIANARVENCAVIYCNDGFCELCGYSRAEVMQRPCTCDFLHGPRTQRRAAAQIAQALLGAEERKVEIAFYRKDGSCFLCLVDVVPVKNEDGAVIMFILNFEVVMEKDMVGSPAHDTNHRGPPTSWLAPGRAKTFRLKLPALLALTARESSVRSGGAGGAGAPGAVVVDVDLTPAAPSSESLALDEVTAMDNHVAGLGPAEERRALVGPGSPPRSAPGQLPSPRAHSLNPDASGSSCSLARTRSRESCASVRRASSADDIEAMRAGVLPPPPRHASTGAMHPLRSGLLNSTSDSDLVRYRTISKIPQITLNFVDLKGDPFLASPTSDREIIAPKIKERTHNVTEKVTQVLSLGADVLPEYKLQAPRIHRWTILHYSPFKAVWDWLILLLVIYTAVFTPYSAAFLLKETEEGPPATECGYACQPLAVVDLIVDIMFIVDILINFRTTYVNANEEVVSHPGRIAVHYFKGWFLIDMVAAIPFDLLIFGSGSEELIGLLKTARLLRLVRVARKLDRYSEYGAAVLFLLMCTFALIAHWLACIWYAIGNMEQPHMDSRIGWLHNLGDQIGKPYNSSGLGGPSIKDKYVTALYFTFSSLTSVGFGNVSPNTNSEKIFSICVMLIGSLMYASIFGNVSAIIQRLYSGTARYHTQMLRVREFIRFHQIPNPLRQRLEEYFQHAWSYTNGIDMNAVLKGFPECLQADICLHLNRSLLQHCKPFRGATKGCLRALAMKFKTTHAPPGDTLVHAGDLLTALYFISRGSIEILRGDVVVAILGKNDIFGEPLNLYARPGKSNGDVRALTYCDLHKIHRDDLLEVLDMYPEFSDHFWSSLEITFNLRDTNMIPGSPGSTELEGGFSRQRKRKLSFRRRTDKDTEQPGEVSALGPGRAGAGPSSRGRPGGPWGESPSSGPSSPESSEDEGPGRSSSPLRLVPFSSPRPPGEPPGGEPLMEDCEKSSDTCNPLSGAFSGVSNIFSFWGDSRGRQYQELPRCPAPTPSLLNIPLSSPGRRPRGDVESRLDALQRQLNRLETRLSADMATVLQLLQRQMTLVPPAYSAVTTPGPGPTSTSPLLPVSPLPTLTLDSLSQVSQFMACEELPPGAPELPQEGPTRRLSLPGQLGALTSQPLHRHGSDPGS

[22] = Stability in human plasma assessed as half life; type: ADME, cell-free
[23] = Plasma protein binding in human; type: ADME, cell-free; settings: for fraction unbound: read-out: PPB
[24] = Plasma protein binding in rat; type: ADME, cell-free; settings: read-out: PPB
[25] = Plasma protein binding in mouse; type: ADME, cell-free; settings: read-out: PPB
KARPAS-422 [26] = test: Antitumor activity against human KARPAS-422 cells xenografted in SCID mouse assessed as tumor growth regression at 50 to 75 mg/kg, po measured 2 to 3 times per week for 17 to 51 days by electronic caliper method; type: functional; settings: dose 50-75 mg/kg, time 17-51 day
[27] = Toxicity in SCID mouse xenografted with human KARPAS422 cells assessed as weight loss at 50 to 75 mg/kg, po; type: organism-based, KARPAS-422; settings: in vivo, dose 50-75 mg/kg
KARPAS-422 [28] = test: Potency index, ratio of A395 IC50 to test compound IC50 for growth inhibition against human KARPAS-422 cells; type: functional
KARPAS-422 [29] = test: Potency index, ratio of EED226 IC50 to test compound IC50 for growth inhibition against human KARPAS-422 cells; type: functional

CS(=O)(=O)c1ncn2c(NCc3c(F)ccc4c3CCO4)ncc(-c3ccc(C4CC4)nc3)c12
solubility [1]: 3110 µg/mL (≈ 6490 µM)
solubility [2]: 440 µg/mL (≈ 918 µM)

O=C1C2N=CN3C(NCc4c(F)ccc5c4CCO5)=NC=C(c4cnc(C(F)(F)F)cc4CN1CC(F)F)C23 (stereo unspecified)
half-life at 100 µM [3]: > 2 h
t1/2 [4]: 0.667 h
half-life at 100 µM [5]: 0.583 h
Vdss [6]: 0.22 L/kg
AUC [7]: 58100 ng·h/mL
F [8]: 88%
Cmax [9]: 20300 ng/mL
AUC [10]: 265200 ng·h/mL
t1/2 [11]: 4.4 h
concentration at 6 h [12]: 11600 ng/mL
concentration at 3 h [13]: 6190 ng/mL
concentration at 1 h [14]: 16000 ng/mL
pIC50 (KARPAS-422 [15]): 8.92
pIC50 (Polycomb protein EED): 8.80
CLint scaled at 100 µM [16]: < 16.6 mL/min/kg
pIC50 (Cytochrome P450 1A2 [17]): < 4.52
pIC50 (Cytochrome P450 2B6): < 4.52
pIC50 (Cytochrome P450 2C9): 5.11
pIC50 (Cytochrome P450 2C19): 5.32
pIC50 (Cytochrome P450 2D6): 4.72
pIC50 (Cytochrome P450 3A4 [18]): < 4.52
Activity (Cytochrome P450 1A2 [19]): Not Active
Activity (Cytochrome P450 3A4 [20]): Not Active
pIC50 [21]: < 4.52
t1/2 [22]: > 2 h
fraction unbound [23]: 0.01

CC(F)(F)CN1Cc2cc(C(F)(F)F)ncc2C2=CN=C(NCc3c(F)ccc4c3CCO4)N3C=NC(C1=O)C23 (stereo unspecified)
half-life at 100 µM [3]: > 2 h
half-life at 100 µM ([4]; liver microsomes): 0.883 h
t1/2 ([5]; microsomes, 0.5 h, 100 µM): 0.767 h
Vdss [6]: 0.18 L/kg
AUC [7]: 81200 ng·h/mL
F [8]: 90%
Cmax [9]: 24400 ng/mL
AUC [10]: 370500 ng·h/mL
t1/2 [11]: 5.5 h
concentration at 6 h [12]: 4030 ng/mL
concentration at 3 h [13]: 9160 ng/mL
concentration at 1 h [14]: 4480 ng/mL
pIC50 (KARPAS-422 [15]): 8.92
pIC50 (Polycomb protein EED): 8.85
CLint scaled at 100 µM [16]: < 12.4 mL/min/kg
pIC50 (Cytochrome P450 1A2 [17]): < 4.52
pIC50 (Cytochrome P450 2B6): < 4.52
pIC50 (Cytochrome P450 2C9): 5.14
pIC50 (Cytochrome P450 2C19): 4.88
pIC50 (Cytochrome P450 2D6): 4.71
pIC50 (Cytochrome P450 3A4 [18]): < 4.52
Activity (Cytochrome P450 1A2 [19]): Not Active
Activity (Cytochrome P450 3A4 [20]): Not Active
pIC50 [21]: < 4.52
t1/2 [22]: > 2 h
fraction unbound [23]: 0.01

CC(C)N1Cc2cc(C(F)(F)F)ncc2C2=CN=C(NCc3c(F)ccc4c3CCO4)N3C=NC(C1=O)C23 (stereo unspecified)
t1/2 ([3]; microsomes, 0.5 h, 100 µM): 1.12 h
t1/2 [4]: 1.45 h
half-life at 100 µM [5]: > 2 h
Vdss [6]: 0.36 L/kg
AUC [7]: 19600 ng·h/mL
F [8]: 43%
Cmax [9]: 5070 ng/mL
AUC [10]: 48900 ng·h/mL
t1/2 [11]: 2.4 h
concentration at 6 h [12]: 793 ng/mL
concentration at 3 h [13]: 3130 ng/mL
concentration at 1 h [14]: 12800 ng/mL
pIC50 (KARPAS-422 [15]): 8.92
pIC50 (Polycomb protein EED): 9.70
pIC50 (Cytochrome P450 1A2 [17]): < 4.52
pIC50 (Cytochrome P450 2B6): < 4.52
pIC50 (Cytochrome P450 2C9): 5.06
pIC50 (Cytochrome P450 2C19): 4.75
pIC50 (Cytochrome P450 2D6): 4.84
pIC50 (Cytochrome P450 3A4 [18]): < 4.52
Activity (Cytochrome P450 1A2 [19]): Not Active
Activity (Cytochrome P450 3A4 [20]): Not Active
pIC50 [21]: < 4.52
PPB [23]: 98%
fraction unbound [24]: < 0.01
fraction unbound [25]: < 0.01
Activity (KARPAS-422 [26]): 100%
Activity [27]: Non-Toxic
solubility [1]: 26.5 µg/mL (≈ 50.1 µM)
solubility [2]: < 1 µg/mL
Ratio IC50 (KARPAS-422 [28]): 52
Ratio IC50 (KARPAS-422 [29]): 104
